Measured values published in ChEMBL document CHEMBL1151273, “Cytotoxic furostanol saponins and a megastigmane glucoside from tribulus parvispinus” (J Nat Prod, 2005).
Active and inactive are the calls of the source. No cut-off for these calls is given here.

Tests used:
U-937 [1] = experiment: Cytotoxicity against human U937 cells after 48 hrs by WST1 test; type: functional, cell-based; conditions: U-937, 48 h
HepG2 = experiment: Cytotoxicity against human HepG2 cells after 48 hrs by acid phosphatase method; type: functional, cell-based; conditions: HepG2, 48 h
MCF7 = experiment: Cytotoxicity against human MCF7 cells after 48 hrs by acid phosphatase method; type: functional, cell-based; conditions: MCF7, 48 h
U-937 [2] = experiment: Induction of apoptosis in human U937 cells assessed as hypodiploid region at IC50 measured by propidium iodide incorporation by flow cytometry; type: functional
U-937 [3] = experiment: Induction of apoptosis in human U937 cells assessed as total LDH activity at IC50 by spectrophotometric method; type: functional
U-937 [4] = experiment: Cytotoxicity against human U937 cells assessed as reduction of proliferation at 0.1 uM after 48 hrs; type: functional, cell-based
U-937 [5] = experiment: Cytotoxicity against human U937 cells assessed as reduction of proliferation at 0.1 uM after 24 hrs; type: functional, cell-based
U-937 [6] = experiment: Cytotoxicity against human U937 cells assessed as reduction of proliferation at 0.5 uM after 24 hrs; type: functional, cell-based

**Q.** Which results are given for Oc1ccc(/C=C/c2cc(O)cc(O)c2)cc1 [RESVERATROL]?
**A.** IC50 (U-937 [1]): 17 µM; IC50 (HepG2): 50 µM; IC50 (MCF7): 100 µM

**Q.** Which results are given for CO[C@]1(CC[C@@H](C)CO[C@@H]2O[C@H](CO)[C@@H](O)[C@H](O)[C@H]2O)O[C@H]2C[C@H]3[C@@H]4CC[C@H]5C[C@@H](O[C@@H]6O[C@H](CO)[C@H](O[C@@H]7O[C@H](CO)[C@@H](O)[C@H](O[C@@H]8OC[C@@H](O)[C@H](O)[C@H]8O)[C@H]7O[C@@H]7O[C@H](CO)[C@H](O)[C@H](O)[C@H]7O)[C@H](O)[C@H]6O)CC[C@]5(C)[C@H]4CC[C@]3(C)[C@H]2[C@@H]1C [22-O-METHYLPARVISPINOSIDE B]?
**A.** Activity (U-937 [2]): 3%; IC50 (U-937 [1]): 2 µM; IC50 (HepG2): 30 µM; Activity (U-937 [3]): 50%; IC50 (MCF7): 40 µM

**Q.** How did the Activity (U-937 [2]) turn out when C[C@@H]1CC[C@@]2(OC1)O[C@H]1C[C@H]3[C@@H]4CC[C@H]5C[C@@H](O[C@@H]6O[C@H](CO)[C@H](O[C@@H]7O[C@H](CO)[C@@H](O)[C@H](O[C@@H]8OC[C@@H](O)[C@H](O)[C@H]8O)[C@H]7O[C@@H]7O[C@H](CO)[C@H](O)[C@H](O)[C@H]7O)[C@H](O)[C@H]6O)CC[C@]5(C)[C@H]4CC[C@]3(C)[C@H]1[C@@H]2C [GITONIN] was run?
**A.** The Activity was 20%.

**Q.** And the Activity (U-937 [4])?
**A.** Its Activity is “Active”.

**Q.** What about the IC50 (U-937 [1]) of the same molecule?
**A.** The IC50 was 0.1 µM.

**Q.** What about the IC50 (HepG2) of the same molecule?
**A.** Its IC50 is 3 µM.

**Q.** And the Activity (U-937 [5])?
**A.** Its Activity is “Active”.

**Q.** And the Activity (U-937 [3])?
**A.** The Activity was 25%.

**Q.** And the IC50 (MCF7)?
**A.** Its IC50 is 3 µM.

**Q.** Which results are given for C[C@H](CC[C@@]1(O)O[C@H]2C[C@H]3[C@@H]4CC[C@H]5C[C@@H](O[C@@H]6O[C@H](CO)[C@H](O[C@@H]7O[C@H](CO)[C@@H](O)[C@H](O[C@@H]8OC[C@@H](O)[C@H](O)[C@H]8O)[C@H]7O[C@@H]7O[C@H](CO)[C@H](O)[C@H](O)[C@H]7O)[C@H](O)[C@H]6O)[C@H](O)C[C@]5(C)[C@H]4CC[C@]3(C)[C@H]2[C@@H]1C)CO[C@@H]1O[C@H](CO)[C@@H](O)[C@H](O)[C@H]1O [PARVISPINOSIDE A]?
**A.** Activity (U-937 [2]): 32%; IC50 (U-937 [1]): 30 µM; IC50 (HepG2): > 100 µM; Activity (U-937 [3]): 28%; IC50 (MCF7): > 100 µM

**Q.** C[C@H](CC[C@@]1(O)O[C@H]2C[C@H]3[C@@H]4CC[C@H]5C[C@@H](O[C@@H]6O[C@H](CO)[C@H](O[C@@H]7O[C@H](CO)[C@@H](O)[C@H](O[C@@H]8OC[C@@H](O)[C@H](O)[C@H]8O)[C@H]7O[C@@H]7O[C@H](CO)[C@H](O)[C@H](O)[C@H]7O)[C@H](O)[C@H]6O)CC[C@]5(C)[C@H]4CC[C@]3(C)[C@H]2[C@@H]1C)CO[C@@H]1O[C@H](CO)[C@@H](O)[C@H](O)[C@H]1O [PARVISPINOSIDE B] was tested. Which Activity (U-937 [2]) did it give?
**A.** The Activity was 26%.

**Q.** What about the Activity (U-937 [4]) of the same molecule?
**A.** Its Activity is “Active”.

**Q.** And the IC50 (U-937 [1])?
**A.** The IC50 was 0.5 µM.

**Q.** What about the Activity (U-937 [6]) of the same molecule?
**A.** The Activity was “Active”.

**Q.** And the IC50 (HepG2)?
**A.** The IC50 was > 100 µM.

**Q.** And the Activity (U-937 [3])?
**A.** Its Activity is 27%.

**Q.** What about the IC50 (MCF7) of the same molecule?
**A.** The IC50 was 94 µM.

**Q.** Which results are given for CC1=CC(=O)CC(C)(C)[C@@]1(O)/C=C/C(O)CO[C@@H]1O[C@H](CO)[C@@H](O)[C@H](O)[C@H]1O (stereo not given in full) [PARVISPINOSIDE C]?
**A.** IC50 (U-937 [1]): 15 µM; IC50 (HepG2): > 100 µM; IC50 (MCF7): 80 µM

**Q.** With CO[C@]1(CC[C@@H](C)CO[C@@H]2O[C@H](CO)[C@@H](O)[C@H](O)[C@H]2O)O[C@H]2C[C@H]3[C@@H]4CC[C@H]5C[C@@H](O[C@@H]6O[C@H](CO)[C@H](O[C@@H]7O[C@H](CO)[C@@H](O)[C@H](O[C@@H]8OC[C@@H](O)[C@H](O)[C@H]8O)[C@H]7O[C@@H]7O[C@H](CO)[C@H](O)[C@H](O)[C@H]7O)[C@H](O)[C@H]6O)[C@H](O)C[C@]5(C)[C@H]4CC[C@]3(C)[C@H]2[C@@H]1C [22-O-METHYLPARVISPINOSIDE A] as the molecule, how does the Activity (U-937 [2]) read?
**A.** Its Activity is 9%.

**Q.** What about the IC50 (U-937 [1]) of the same molecule?
**A.** Its IC50 is 1 µM.

**Q.** And the IC50 (HepG2)?
**A.** Its IC50 is 30 µM.

**Q.** And the Activity (U-937 [3])?
**A.** The Activity was 38%.

**Q.** And the IC50 (MCF7)?
**A.** Its IC50 is 50 µM.
